From US10253039B2, “Inhibitors of bacterial DNA gyrase with efficacy against gram-negative bacteria” (priority 2014, dated 2019)
≈ marks a conversion by molar mass, not a printed value.

System: Edwardsiella tarda
Experiment: MIC, microdilution in 96-well plates
Type: cell-based
Details: D: Edwardsiella tarda
Procedure, shortened: (§1)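 After 16-18 h shaking incubation at 37 °C, MIC was read visually as the lowest concentration without turbidity. Compounds were 2-fold serially diluted in LB medium seeded with a 1:10000 inoculum, following the CLSI microdilution protocol.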

Row | Structure (SMILES) | MIC
1 | O=S(=O)(N[C@@H]1CCN(Cc2ccc(-c3cncnc3)cc2)C1)c1cccc(OC(F)(F)F)c1 [Compound 63] | > 8 µg/mL
2 | CC(C)Oc1ccc(CN2CC[C@@H](NS(=O)(=O)c3cc(C(F)(F)F)ccc3F)C2)cc1 [Compound 4] | > 8 µg/mL
3 | O=S(=O)(N[C@@H]1CCN(Cc2ccc(OC3CC3)cc2)C1)c1cccnc1 [Compound 104] | > 8 µg/mL
4 | O=S(=O)(N[C@@H]1CCN(Cc2ccc(OC(F)(F)F)cc2)C1)c1cccc(OC(F)(F)F)c1 [Compound 51] | > 8 µg/mL
5 | O=S(=O)(N[C@@H]1CCN(Cc2nc(-c3ccccc3)cs2)C1)c1cccc(OC(F)(F)F)c1 [Compound 107] | > 8 µg/mL

System: E. coli BW25113
Experiment: MIC, microdilution in 96-well plates
Type: cell-based
Details: Escherichia coli, BW25113, B: E. coli BW25113; read-out: MIC
Procedure, shortened: as §1

Row | Structure (SMILES) | MIC
6 | O=S(=O)(N[C@@H]1CCN(Cc2ccc(-c3cncnc3)cc2)C1)c1cccc(OC(F)(F)F)c1 [Compound 63] | > 8 µg/mL
7 | CC(C)Oc1ccc(CN2CC[C@@H](NS(=O)(=O)c3cc(C(F)(F)F)ccc3F)C2)cc1 [Compound 4] | > 8 µg/mL
8 | O=S(=O)(N[C@@H]1CCN(Cc2ccc(OC3CC3)cc2)C1)c1cccnc1 [Compound 104] | > 8 µg/mL
9 | O=S(=O)(N[C@@H]1CCN(Cc2ccc(OC(F)(F)F)cc2)C1)c1cccc(OC(F)(F)F)c1 [Compound 51] | > 8 µg/mL
10 | O=S(=O)(N[C@@H]1CCN(Cc2nc(-c3ccccc3)cs2)C1)c1cccc(OC(F)(F)F)c1 [Compound 107] | > 8 µg/mL

System: Staphylococcus saprophyticus subsp. saprophyticus
Experiment: MIC, 20-strain panel
Type: cell-based
Details: not given
Procedure, shortened: as §1

Row | Structure (SMILES) | MIC
11 | O=S(=O)(N[C@@H]1CCN(Cc2ccc(-c3cncnc3)cc2)C1)c1cccc(OC(F)(F)F)c1 [Compound 63] | > 8 µg/mL
12 | CC(C)Oc1ccc(CN2CC[C@@H](NS(=O)(=O)c3cc(C(F)(F)F)ccc3F)C2)cc1 [Compound 4] | > 8 µg/mL
13 | O=S(=O)(N[C@@H]1CCN(Cc2ccc(OC3CC3)cc2)C1)c1cccnc1 [Compound 104] | > 8 µg/mL
14 | O=S(=O)(N[C@@H]1CCN(Cc2ccc(OC(F)(F)F)cc2)C1)c1cccc(OC(F)(F)F)c1 [Compound 51] | > 8 µg/mL
15 | O=S(=O)(N[C@@H]1CCN(Cc2nc(-c3ccccc3)cs2)C1)c1cccc(OC(F)(F)F)c1 [Compound 107] | > 8 µg/mL

System: Klebsiella pneumoniae subsp. pneumoniae
Experiment: MIC, 20-strain panel
Type: cell-based
Details: E: Klebsiella pneumoniae subsp. pneumoniae
Procedure, shortened: as §1

Row | Structure (SMILES) | MIC
16 | O=S(=O)(N[C@@H]1CCN(Cc2ccc(-c3cncnc3)cc2)C1)c1cccc(OC(F)(F)F)c1 [Compound 63] | > 8 µg/mL
17 | CC(C)Oc1ccc(CN2CC[C@@H](NS(=O)(=O)c3cc(C(F)(F)F)ccc3F)C2)cc1 [Compound 4] | > 8 µg/mL
18 | O=S(=O)(N[C@@H]1CCN(Cc2ccc(OC3CC3)cc2)C1)c1cccnc1 [Compound 104] | > 8 µg/mL
19 | O=S(=O)(N[C@@H]1CCN(Cc2ccc(OC(F)(F)F)cc2)C1)c1cccc(OC(F)(F)F)c1 [Compound 51] | > 8 µg/mL
20 | O=S(=O)(N[C@@H]1CCN(Cc2nc(-c3ccccc3)cs2)C1)c1cccc(OC(F)(F)F)c1 [Compound 107] | > 8 µg/mL

System: Shigella flexneri
Experiment: MIC, 20-strain panel
Type: cell-based
Details: G: Shigella flexneri
Procedure, shortened: as §1

Row | Structure (SMILES) | MIC
21 | O=S(=O)(N[C@@H]1CCN(Cc2ccc(-c3cncnc3)cc2)C1)c1cccc(OC(F)(F)F)c1 [Compound 63] | > 8 µg/mL
22 | CC(C)Oc1ccc(CN2CC[C@@H](NS(=O)(=O)c3cc(C(F)(F)F)ccc3F)C2)cc1 [Compound 4] | > 8 µg/mL
23 | O=S(=O)(N[C@@H]1CCN(Cc2ccc(OC3CC3)cc2)C1)c1cccnc1 [Compound 104] | > 8 µg/mL
24 | O=S(=O)(N[C@@H]1CCN(Cc2ccc(OC(F)(F)F)cc2)C1)c1cccc(OC(F)(F)F)c1 [Compound 51] | > 8 µg/mL
25 | O=S(=O)(N[C@@H]1CCN(Cc2nc(-c3ccccc3)cs2)C1)c1cccc(OC(F)(F)F)c1 [Compound 107] | > 8 µg/mL

System: Streptococcus agalactiae
Experiment: MIC, 20-strain panel
Type: cell-based
Details: not given
Procedure, shortened: as §1

Row | Structure (SMILES) | MIC
26 | O=S(=O)(N[C@@H]1CCN(Cc2ccc(-c3cncnc3)cc2)C1)c1cccc(OC(F)(F)F)c1 [Compound 63] | > 8 µg/mL
27 | CC(C)Oc1ccc(CN2CC[C@@H](NS(=O)(=O)c3cc(C(F)(F)F)ccc3F)C2)cc1 [Compound 4] | > 8 µg/mL
28 | O=S(=O)(N[C@@H]1CCN(Cc2ccc(OC3CC3)cc2)C1)c1cccnc1 [Compound 104] | > 8 µg/mL
29 | O=S(=O)(N[C@@H]1CCN(Cc2ccc(OC(F)(F)F)cc2)C1)c1cccc(OC(F)(F)F)c1 [Compound 51] | > 8 µg/mL
30 | O=S(=O)(N[C@@H]1CCN(Cc2nc(-c3ccccc3)cs2)C1)c1cccc(OC(F)(F)F)c1 [Compound 107] | > 8 µg/mL

System: E. coli MG1655
Experiment: MIC, 20-strain panel
Type: cell-based
Details: Escherichia coli, MG1655, A: E. coli MG1655; read-out: MIC
Procedure, shortened: as §1

Row | Structure (SMILES) | MIC
31 | O=S(=O)(N[C@@H]1CCN(Cc2ccc(-c3cncnc3)cc2)C1)c1cccc(OC(F)(F)F)c1 [Compound 63] | > 8 µg/mL
32 | CC(C)Oc1ccc(CN2CC[C@@H](NS(=O)(=O)c3cc(C(F)(F)F)ccc3F)C2)cc1 [Compound 4] | > 8 µg/mL
33 | O=S(=O)(N[C@@H]1CCN(Cc2ccc(OC3CC3)cc2)C1)c1cccnc1 [Compound 104] | > 8 µg/mL
34 | O=S(=O)(N[C@@H]1CCN(Cc2ccc(OC(F)(F)F)cc2)C1)c1cccc(OC(F)(F)F)c1 [Compound 51] | > 8 µg/mL
35 | O=S(=O)(N[C@@H]1CCN(Cc2nc(-c3ccccc3)cs2)C1)c1cccc(OC(F)(F)F)c1 [Compound 107] | > 8 µg/mL

System: Streptococcus pyogenes
Experiment: MIC, 20-strain panel
Type: cell-based
Details: not given
Procedure, shortened: as §1

Row | Structure (SMILES) | MIC
36 | O=S(=O)(N[C@@H]1CCN(Cc2ccc(-c3cncnc3)cc2)C1)c1cccc(OC(F)(F)F)c1 [Compound 63] | > 8 µg/mL
37 | CC(C)Oc1ccc(CN2CC[C@@H](NS(=O)(=O)c3cc(C(F)(F)F)ccc3F)C2)cc1 [Compound 4] | > 8 µg/mL
38 | O=S(=O)(N[C@@H]1CCN(Cc2ccc(OC3CC3)cc2)C1)c1cccnc1 [Compound 104] | > 8 µg/mL
39 | O=S(=O)(N[C@@H]1CCN(Cc2ccc(OC(F)(F)F)cc2)C1)c1cccc(OC(F)(F)F)c1 [Compound 51] | > 8 µg/mL
40 | O=S(=O)(N[C@@H]1CCN(Cc2nc(-c3ccccc3)cs2)C1)c1cccc(OC(F)(F)F)c1 [Compound 107] | > 8 µg/mL

System: Salmonella enterica subsp. enterica typhimurium
Experiment: MIC, 20-strain panel
Type: cell-based
Details: F: Salmonella enterica subsp. enterica Typhimurium
Procedure, shortened: as §1

Row | Structure (SMILES) | MIC
41 | O=S(=O)(N[C@@H]1CCN(Cc2ccc(-c3cncnc3)cc2)C1)c1cccc(OC(F)(F)F)c1 [Compound 63] | > 8 µg/mL
42 | CC(C)Oc1ccc(CN2CC[C@@H](NS(=O)(=O)c3cc(C(F)(F)F)ccc3F)C2)cc1 [Compound 4] | > 8 µg/mL
43 | O=S(=O)(N[C@@H]1CCN(Cc2ccc(OC3CC3)cc2)C1)c1cccnc1 [Compound 104] | > 8 µg/mL
44 | O=S(=O)(N[C@@H]1CCN(Cc2ccc(OC(F)(F)F)cc2)C1)c1cccc(OC(F)(F)F)c1 [Compound 51] | > 8 µg/mL
45 | O=S(=O)(N[C@@H]1CCN(Cc2nc(-c3ccccc3)cs2)C1)c1cccc(OC(F)(F)F)c1 [Compound 107] | > 8 µg/mL

System: E. coli JW5503 (deltolC)
Experiment: MIC, 20-strain panel
Type: cell-based
Details: Escherichia coli, C: E. coli JW5503 (deltolC)
Procedure, shortened: as §1

Row | Structure (SMILES) | MIC
46 | O=S(=O)(N[C@@H]1CCN(Cc2ccc(-c3cncnc3)cc2)C1)c1cccc(OC(F)(F)F)c1 [Compound 63] | 4 µg/mL (≈ 8.36 µM)
47 | CC(C)Oc1ccc(CN2CC[C@@H](NS(=O)(=O)c3cc(C(F)(F)F)ccc3F)C2)cc1 [Compound 4] | 0.5 µg/mL (≈ 1.09 µM)
48 | O=S(=O)(N[C@@H]1CCN(Cc2ccc(OC3CC3)cc2)C1)c1cccnc1 [Compound 104] | > 8 µg/mL
49 | O=S(=O)(N[C@@H]1CCN(Cc2ccc(OC(F)(F)F)cc2)C1)c1cccc(OC(F)(F)F)c1 [Compound 51] | 4 µg/mL (≈ 8.26 µM)
50 | O=S(=O)(N[C@@H]1CCN(Cc2nc(-c3ccccc3)cs2)C1)c1cccc(OC(F)(F)F)c1 [Compound 107] | > 8 µg/mL

System: Staphylococcus aureus subsp. aureus
Experiment: MIC, 20-strain panel
Type: cell-based
Details: H: Staphylococcus aureus subsp. aureus, read-out: MIC
Procedure, shortened: as §1

Row | Structure (SMILES) | MIC
51 | O=S(=O)(N[C@@H]1CCN(Cc2ccc(-c3cncnc3)cc2)C1)c1cccc(OC(F)(F)F)c1 [Compound 63] | > 8 µg/mL
52 | CC(C)Oc1ccc(CN2CC[C@@H](NS(=O)(=O)c3cc(C(F)(F)F)ccc3F)C2)cc1 [Compound 4] | > 8 µg/mL
53 | O=S(=O)(N[C@@H]1CCN(Cc2ccc(OC3CC3)cc2)C1)c1cccnc1 [Compound 104] | > 8 µg/mL
54 | O=S(=O)(N[C@@H]1CCN(Cc2ccc(OC(F)(F)F)cc2)C1)c1cccc(OC(F)(F)F)c1 [Compound 51] | > 8 µg/mL
55 | O=S(=O)(N[C@@H]1CCN(Cc2nc(-c3ccccc3)cs2)C1)c1cccc(OC(F)(F)F)c1 [Compound 107] | > 8 µg/mL

System: Staphylococcus epidermidis
Experiment: MIC, 20-strain panel
Type: cell-based
Details: not given
Procedure, shortened: as §1

Row | Structure (SMILES) | MIC
56 | O=S(=O)(N[C@@H]1CCN(Cc2ccc(-c3cncnc3)cc2)C1)c1cccc(OC(F)(F)F)c1 [Compound 63] | > 8 µg/mL
57 | CC(C)Oc1ccc(CN2CC[C@@H](NS(=O)(=O)c3cc(C(F)(F)F)ccc3F)C2)cc1 [Compound 4] | > 8 µg/mL
58 | O=S(=O)(N[C@@H]1CCN(Cc2ccc(OC3CC3)cc2)C1)c1cccnc1 [Compound 104] | > 8 µg/mL
59 | O=S(=O)(N[C@@H]1CCN(Cc2ccc(OC(F)(F)F)cc2)C1)c1cccc(OC(F)(F)F)c1 [Compound 51] | > 8 µg/mL
60 | O=S(=O)(N[C@@H]1CCN(Cc2nc(-c3ccccc3)cs2)C1)c1cccc(OC(F)(F)F)c1 [Compound 107] | > 8 µg/mL
